Laboratory results taken from PubChem BioAssay AID1259407 (Chemical Carcinogenesis Research Information System (CCRIS), 2018).
Active and inactive are the calls of the source. No rule for the calls is given here.

Test system: CCRIS mutagenicity, Ames/micronucleus/aberration tests
Assay: CCRIS mutagenicity studies
[1] = Test System: AMES SALMONELLA TYPHIMURIUM, Strain/Indicator: TA98, Metabolic Activation: NONE, Method: STANDARD PLATE
[2] = Test System: AMES SALMONELLA TYPHIMURIUM, Strain/Indicator: TA100, Metabolic Activation: NONE, Method: STANDARD PLATE
[3] = Test System: AMES SALMONELLA TYPHIMURIUM, Strain/Indicator: TA100, Metabolic Activation: NONE, Method: PREINCUBATION

## [O-][N+](=Nc1ccc(Cl)c(Cl)c1)c1ccc(Cl)c(Cl)c1
Test System: AMES SALMONELLA TYPHIMURIUM, Strain/Indicator: TA97, Metabolic Activation: NONE, Method: STANDARD PLATE
  mutagenic call: inactive; negative
Test System: AMES SALMONELLA TYPHIMURIUM, Strain/Indicator: TA97, Metabolic Activation: RAT, LIVER, S-9, AROCLOR 1254, Method: STANDARD PLATE
  mutagenic call: inactive; negative
[1]
  mutagenic call: inactive; negative
Test System: AMES SALMONELLA TYPHIMURIUM, Strain/Indicator: TA98, Metabolic Activation: RAT, LIVER, S-9, AROCLOR 1254, Method: STANDARD PLATE
  mutagenic call: inactive; negative
[2]
  mutagenic call: inactive; negative
Test System: AMES SALMONELLA TYPHIMURIUM, Strain/Indicator: TA100, Metabolic Activation: RAT, LIVER, S-9, AROCLOR 1254, Method: STANDARD PLATE
  mutagenic call: inactive; negative
Test System: AMES SALMONELLA TYPHIMURIUM, Strain/Indicator: TA104, Metabolic Activation: NONE, Method: STANDARD PLATE
  mutagenic call: inactive; negative
Test System: AMES SALMONELLA TYPHIMURIUM, Strain/Indicator: TA104, Metabolic Activation: RAT, LIVER, S-9, AROCLOR 1254, Method: STANDARD PLATE
  mutagenic call: inactive; negative
Test System: CHINESE HAMSTER OVARY, Strain/Indicator: CHO-K1-BH4 (HGPRT), Metabolic Activation: NONE
  mutagenic call: inactive; negative
Test System: CHINESE HAMSTER OVARY, Strain/Indicator: CHO-K1-BH4 (HGPRT), Metabolic Activation: RAT, LIVER, S-9, AROCLOR 1254
  mutagenic call: inactive; negative

## COc1nc(C(Cl)(Cl)Cl)c(Cl)c(OC)c1Cl
Test System: Mouse lymphoma, Strain/Indicator: L5178Y (tk+/tk-), Metabolic Activation: Rat, Liver, S-9, Aroclor 1254, Method: Suspension/plate
  mutagenic call: active; positive

## ClCc1cccc(CCl)c1
[1]
  mutagenic call: inactive; negative

## c1ccc(CN2CCN=N2)cc1
Test System: AMES SALMONELLA TYPHIMURIUM, Strain/Indicator: TA1535, Metabolic Activation: NONE, Method: STANDARD PLATE
  mutagenic call: active; positive

## Nc1nc2c([nH]c(=O)n2[C@@H]2O[C@H](CO)[C@@H](O)[C@H]2O)c(=O)[nH]1
[3]
  mutagenic call: inactive; negative

## CC(C)N(CC(O)COc1ccc(CC(N)=O)cc1)N=O (configuration not stated)
Test System: UDS HUMAN HEPATOCYTES, Strain/Indicator: THY INCORP, Metabolic Activation: NONE, Method: AUTORADIOGRAPHY
  mutagenic call: active; positive
Test System: UDS RAT HEPATOCYTES, Strain/Indicator: THY INCORP, Metabolic Activation: NONE, Method: AUTORADIOGRAPHY
  mutagenic call: active; positive

## CC(=O)OCc1c2cccc3ccc4cc5cccc6ccc1c(c65)c4c32
[1]
  mutagenic call: active; positive
[2]
  mutagenic call: inactive; negative

## Cc1cc2ccccc2c2ccc3c(c12)[C@H]1O[C@H]1[C@@H](O)[C@@H]3O
[3]
  mutagenic call: active; positive

## CSc1ccc([N+](=O)[O-])cc1[N+](=O)[O-]
Test System: AMES SALMONELLA TYPHIMURIUM, Strain/Indicator: TA100(NR), Metabolic Activation: NONE, Method: PREINCUBATION
  mutagenic call: active; positive
Test System: AMES SALMONELLA TYPHIMURIUM, Strain/Indicator: TA100/GSH-, Metabolic Activation: NONE, Method: PREINCUBATION
  mutagenic call: active; positive
[3]
  mutagenic call: active; positive
